How the values were obtained:
[1] = molecular target: T1, PYR1 + HAB1 (Arabidopsis thaliana, UniProt O49686); assay: AlphaScreen experiment, PYR1 + HAB1; format: binding; conditions: column 2; number in brackets; read-out: Half maximum effect concentration EC50 (PYR1 + HAB1)
T1 sequence (O49686 1-191): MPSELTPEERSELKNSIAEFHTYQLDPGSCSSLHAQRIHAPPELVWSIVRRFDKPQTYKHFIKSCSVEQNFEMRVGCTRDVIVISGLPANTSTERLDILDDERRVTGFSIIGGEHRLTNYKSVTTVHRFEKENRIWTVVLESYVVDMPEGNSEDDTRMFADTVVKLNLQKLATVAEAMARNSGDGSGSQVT
T1 sequence (Q9CAJ0 172-511 partner): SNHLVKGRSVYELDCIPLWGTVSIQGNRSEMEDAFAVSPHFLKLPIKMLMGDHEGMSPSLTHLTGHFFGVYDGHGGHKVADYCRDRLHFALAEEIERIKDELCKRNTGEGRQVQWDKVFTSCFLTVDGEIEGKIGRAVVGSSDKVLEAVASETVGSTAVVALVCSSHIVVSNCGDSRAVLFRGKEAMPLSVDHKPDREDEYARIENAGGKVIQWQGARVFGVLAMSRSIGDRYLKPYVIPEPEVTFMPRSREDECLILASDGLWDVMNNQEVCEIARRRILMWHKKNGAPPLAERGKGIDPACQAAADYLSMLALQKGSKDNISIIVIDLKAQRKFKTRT
Experimental: After incubating for 1.5 hours at room temperature in the dark, it was placed into an Envision Plate Reader (available from Perkin Elmer) under the programmed AlphaScreen procedure for readings.

[2] = tested on: Arabidopsis Col-0 ecotype; assay: Soil drought experiment, Arabidopsis; format: in vivo, Arabidopsis thaliana
Experimental: Seeds of Arabidopsis Col-0 ecotype were sterilized with NaClO and then sown on ½ MS solid medium at 4° C. for 3 days of vernalization. After 6 days of growing, the well-grown seedlings having uniform size were selected and transferred into 8×7×6 cm^3 pots. Each pot was filled with the same weight of soil and the same number of plants (six plants) was planted to reduce experimental error. All the pots were subjected to a short-day culture at 22° C. After two weeks, watering was stopped for drought treatment. […] The position of the flowerpot was changed every day during the process of drought to reduce the error caused by environmental factors. During the whole drought period, the solution was sprayed twice in total and photos were recorded regularly. The watering was resumed in about three weeks.

[3] = tested on: soybean; assay: Soil drought experiment, soybean; format: in vivo; conditions: 50 μM
Experimental: Only one plant was contained in each pot. All soybean plants were long-day cultured at 26° C. Watering was stopped after the plant had three leaves in each of three groups of leaves and the plants with consistent growth were selected for drought treatment. As for corn, watering was stopped during the small trumpet period for drought treatment. […] After a week, the watering was resumed. Soybeans and cotton used in leaf transpiration experiments for compound 0720B were also used for soil drought experiments. Each pot contained only one plant and was filled with the same weight of soil to reduce experimental errors. All of the soybean plants were grown at 26° C. for long-day culture. 16 days after seeding, watering was stopped and the plants with consistent growth were selected for drought treatment. […] Cotton drought experiments were similar to that of the soybean. 23 days after seeding, the watering was stopped, and the plants with consistent growth were selected for drought treatment. […] After 10 days of drought, the photos were taken.

[4] = tested on: Yunnan Lily variety Siberia; assay: Flower preservative experiment; format: in vivo; conditions: aqueous suspension 10 ppm (22.5 μM); after 20 days
Experimental: The commercially available Yunnan Lily varieties “Siberia” biennial buds were used for test, wherein each branch had 5 buds and 10 leaves, and there was 1 branch per bottle. The branch having buds was inserted into a water suspension preparation containing 10 ppm (22.5 μM) of AMX compound 1127 or into tap water. The flower status was recorded before and after 20 days of treatment.

[5] = tested on: Kyoho grapes; assay: Grape coloring experiment (anthocyanin content); format: in vivo; conditions: aqueous suspension; vs fresh water control
Experimental: The grapes used in the experiment were commercially available variety of Kyoho. According to weather conditions, during the color conversion period of grapes, the fruit ears with the same size and consistent growth were selected and soaked with a water suspension preparation containing 2000 mg/L, 1000 mg/L, 500 mg/L and 100 mg/L of 6% AMX compound 1127 for 10 seconds. Soaking in water was regarded as a control. Each experiment was repeated 10 times, each ear was regarded as a duplicate. Samples were collected after harvesting. Samples were collected from the upper, middle and lower parts of each ear in two directions, i.e., glossy and backlit, with 6 grains collected per ear. The samples were preserved in the laboratory at −20° C. for use.
30 pieces of pericarp were evenly taken from up and low portion around the equator of grape fruit by using a hole puncher with a diameter of 10 mm. After they were mixed well and weighed, the anthocyanin in the pericarp was determined. […] The content of anthocyanins (calculated as cornflower-3-glucoside equivalent) was determined by pH differential method and each treatment was repeated three times. Content of anthocyanins (mg/g) X=ΔA×F×M/ε×m, wherein ΔA was absorbance; F was fold of dilution; M is the relative molecular mass 449.2 of cyanidin-3-glucoside, ε is a molar extinction coefficient 26,900 for cyanidin-3-glucoside; m is sample mass.

[6] = tested on: Chinese hamster lung cell (CHL); assay: In vitro micronucleus experiment; format: cell-based; conditions: -S9; 24 hours
Experimental: (§1) The test substance used in the experiment was AMX compound 1127.
Firstly, CHL cells used in in vitro micronucleus test were tested in IC50 determination experiment. According to IC50 determination results, in vitro micronucleus test dosage was set. 4 doses of 1 μg/ml, 20 μg/ml, 30 μg/ml and 40 μg/ml were set in total, while a negative control and a positive control were also set. The CHL cells were treated for 24 hours under the condition of −S9 and sections were prepared.
The numbers of monocytes, binucleate cells and multinucleated cells in 500 cells per dose were counted and the cytokinesis-block proliferation index (CBPI) and cytotoxicity at each dose were calculated.

[7] = Maximum tolerated dose, single oral gavage; format: in vivo; conditions: both sexes, rat, in vivo, 5000 mg/kg, SD rats
Experimental: as §1
(§2) In the maximum tolerated dose of tested substance in single oral gavage experiment in SD rat, 8 SD rats were randomly divided into two groups, with […]. After a single oral gavage administration, rats were observed continuously for 14 days and dissected on the 15th day. The following indicators were evaluated: clinical observation, body weight and pathology examination (macroscopic morphology).

[8] = tested on: SD rat; assay: Maximum tolerated dose, single oral gavage; format: in vivo; conditions: 5000 mg/kg, male and female rats
Experimental: as §1, §2

**Q.** Which EC50 [1] does the source give for `CCCN1C(=O)CCc2cc(NS(=O)(=O)Cc3c(F)c(F)c(C)c(F)c3F)ccc21` [Compound 1127] here?
**A.** Its EC50 is 15 nM.

**Q.** What about the plant survival ([2]; 5 μM sprayed, 18 days after drought) of the same compound?
**A.** Its plant survival is “still survived”.

**Q.** And the plant growth ([2]; 5 μM sprayed, after 20 days of drought)?
**A.** The plant growth was “still maintained good growth”.

**Q.** And the “drought resistance compared with compound with fewer halogen atoms (0604c)” value ([2]; same concentration, after 2 weeks of drought, FIG. 8c)?
**A.** The value was “stronger drought resistance”.

**Q.** What about the growth ([3]; a week of drought, one month after rewatering) of the same compound?
**A.** The growth was “grew significantly better than the plants sprayed with DMSO (control) and sprayed with 50 μM ABA”.

**Q.** And the survival rate ([3]; after rewatering)?
**A.** Its survival rate is “higher than that in the above two groups”.

**Q.** And the flowers remained normal [4]?
**A.** Its flowers remained normal is 60%.

**Q.** What about the leaf withering [4] of the same compound?
**A.** Its leaf withering is “no leave withered”.

**Q.** What about the leaves remained green [4] of the same compound?
**A.** The leaves remained green was 70%.

**Q.** And the “content of anthocyanin in grapes peel” value [5]?
**A.** Its value is “significantly higher than that in the fresh water control group”.

**Q.** What about the “micronuclei rate in CHL cells” value [6] of the same compound?
**A.** The value was “did not induce an increased micronuclei rate”.

**Q.** And the MTD at 14 days [7]?
**A.** Its MTD at 14 days is > 5000 mg/kg.

**Q.** And the “clinical observation, body weight and macroscopic morphological observation of tissues/organs” value [8]?
**A.** Its value is “no drug-related changes were observed”.
